This is an account of results in US12297426B2, “DNA damage response signature guided rational design of CRISPR-based systems and therapies” (THE BROAD INSTITUTE, INC., priority 2019, dated 2025).

For this assay, the system named is MCF7 cells. In words: Drug response assay (CellTiter-Glo). The class given is cell-based, human. The following applies: Cas9-expressing vs parental MCF7 cells; 0 μM-100 μM, 72 h. The method, then: To further test the functional implications of Cas9-induced p53 activation, compared the response of parental and Cas9-expressing MCF7 cells to the MDM2-inhibitor nutlin-3 was compared. […] Without being bound by theory, these findings conclude that Cas9-induced p53 activation can affect both genetic and chemical perturbation assays.
MCF7 cells were seeded at a density of 9,000 cells per well in a 96-well plate. The next day, media was washed and fresh media containing nutlin-3 (Sigma-Aldrich) was added to the corresponding wells in a concentration range of 0 μM-100 μM. After 72 h of incubation, levels of ATP were measured as a surrogate marker for cell viability using the CellTiter-Glo assay (Promega). Luminescence measurements were acquired in a SpectraMax reader (ATC) using an integration time of 500 ms.
For orientation: Cellular ATP, detected with luciferase, serves as a proxy for viable cell number.

On to `COc1ccc(C2=N[C@@H](c3ccc(Cl)cc3)[C@@H](c3ccc(Cl)cc3)N2C(=O)N2CCNC(=O)C2)c(OC(C)C)c1` [nutlin-3], for which the drug sensitivity entry is “modest, but significant, increase”.
